Measured values reported in patent US20050033056A1, “Hydroxylated indole derivatives and uses thereof” (priority 2001, published 2005).

Columns and labels:
[1] = biological target: T1, CYP2C9 (Homo sapiens, UniProt P11712); assay: CYP inhibition in HLM: S-warfarin 7-hydroxylation; format: in vitro ADME; conditions: 10 or 50 μM
T1 construct: tissue Gentest Corp. (Woburn, Mass.); host or cells: pooled human liver microsomes
Protocol: (§1) The incubations were carried out in test tubes (12.0×75 mm). The incubation mixtures (250 μL) contained 0.5 mg of HLM protein, 50 (CYP1A2 and CYP2E1) or 25 (CYP2C9, CYP2C19, CYP2D6 and CYP3A4) pmol of recombinant human CYPs, Compound 1 (10 or 50 μM), probe substrate (R—, S-warfarin, chlorzoxazone, S-mephenyloin, or bufuralol) at different concentrations, and 0.5 mg of NADPH in 50 mM Tris buffer containing 15 mM MgCl2 (pH 7.4). Compound 1 was added to the reaction mixture 5 minutes prior to the addition of the probe substrate. […]
(§2) The quantification was based on the calibration curves, and the quality control (QC) samples were applied to ensure the quality of the experiments. […]
1. CYP1A2/2C9/3A4-mediated warfarin 6-, 7-, 8-, and 10-hydroxylation (Zhang et al., Drug Metab. Dispos. 23:1339-1346, 1995; Rettie et al., Chem. Res. Toxicol. 5:54-59, 1992; Brian et al., Biochemistry 29:11280-11292, 1990): Hewlett Packard 1100 HPLC system (Waldbronn, Germany) comprised a binary pump, an autosampler, a column compartment unit, a photodiode array detector (PDA), and a fluorescence detector. […] The warfarin metabolites, 6-, 8-, and 10-hydroxywarfarin, were monitored by UV at 313 nm, and 7-hydroxywarfarin by fluorescence at Ex320 nm/Em380 nm. […]

[2] = biological target: T2, CYP2E1 (Homo sapiens, UniProt P05181); assay: CYP inhibition in HLM: chlorzoxazone 6-hydroxylation; format: in vitro ADME; conditions: 10 or 50 μM
T2 construct: tissue Gentest Corp. (Woburn, Mass.); host or cells: pooled human liver microsomes
T2 sequence (P05181 whole entry): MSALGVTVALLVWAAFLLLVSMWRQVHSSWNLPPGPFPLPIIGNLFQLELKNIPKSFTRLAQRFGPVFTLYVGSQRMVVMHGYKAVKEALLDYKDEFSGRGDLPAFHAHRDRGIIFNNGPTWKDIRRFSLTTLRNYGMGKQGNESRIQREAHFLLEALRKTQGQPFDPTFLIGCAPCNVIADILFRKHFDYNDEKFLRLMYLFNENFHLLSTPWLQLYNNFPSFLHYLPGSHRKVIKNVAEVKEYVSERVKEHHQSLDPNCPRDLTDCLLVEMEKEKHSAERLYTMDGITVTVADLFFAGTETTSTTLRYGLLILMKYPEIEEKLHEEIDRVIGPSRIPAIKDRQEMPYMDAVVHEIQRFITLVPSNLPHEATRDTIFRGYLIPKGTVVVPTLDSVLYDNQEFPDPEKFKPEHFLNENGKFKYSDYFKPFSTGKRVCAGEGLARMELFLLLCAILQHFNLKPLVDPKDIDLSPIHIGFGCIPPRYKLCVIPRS
Protocol: as §1, §2
2. […] 6-hydroxychlorzoxazone was monitored by UV at 280 nm.
Data were acquired and analyzed by ChemStation (Version 6.03, Hewlett Packard, Waldbronn, Germany) for 6-, 7-, and 10-hydroxywarfarin and 6-hydroxychlorzoxazone, and MacQuan (Version 1.6, PE Biosystem, Foster City, Calif.) for 1′-hydroxybufuralol and 4′-hydroxymephenytoin. Quantification was based on peak area ratios of metabolites over the respective IS against the respective concentration of the metabolites. […] The metabolic rates were determined using Excel (Microsoft Office 97, Microsoft Corporation, Redmond, Wash.) or SigmaPlot (Version 6.00, SPSS Inc. Chicago, Ill.). […]

T1 sequence (P11712 whole entry): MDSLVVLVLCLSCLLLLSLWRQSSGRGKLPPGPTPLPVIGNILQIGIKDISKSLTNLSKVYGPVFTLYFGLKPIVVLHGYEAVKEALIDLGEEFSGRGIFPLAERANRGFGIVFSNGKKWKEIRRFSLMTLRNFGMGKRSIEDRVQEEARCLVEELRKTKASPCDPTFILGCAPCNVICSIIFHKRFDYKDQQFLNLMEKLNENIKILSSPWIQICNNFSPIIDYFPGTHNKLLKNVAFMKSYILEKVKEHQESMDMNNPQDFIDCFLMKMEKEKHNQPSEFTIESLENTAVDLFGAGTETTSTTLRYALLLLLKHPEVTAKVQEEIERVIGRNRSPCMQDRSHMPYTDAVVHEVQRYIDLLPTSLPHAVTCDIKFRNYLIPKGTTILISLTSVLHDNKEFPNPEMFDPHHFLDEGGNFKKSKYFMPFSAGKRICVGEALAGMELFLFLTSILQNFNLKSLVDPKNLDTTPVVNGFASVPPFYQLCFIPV

CNC(=O)Cc1ccc2ccn(C3CCN(CCc4ccccc4F)CC3)c2c1 [Compound 1, N-methyl-[1-[1-(2-fluorophenethyl)piperidine-4-yl]-1H-indol-6-yl] acetamide]
inhibitory effect on CYP2C9 activity (in words) [1]: no inhibitory effect | inhibitory effect on CYP2E1 activity (in words) [2]: no inhibitory effect
